Source: patent US11679114B2, “Progestogen-only oral contraception” (Navad Life Sciences Pte, priority 2021, dated 2023)
Like-named read-outs stand apart in the source and are kept apart here.

Tests used:
[1] = tested on: healthy, cyclic women; assay: Vaginal bleeding pattern (daily record); type: in vivo, human; conditions: LNG 0.135 mg per day, excluding the first 7 treatment days
Description: The tablets prepared in Example 1 were tested in a single-center, open-label, adaptive design study to evaluate the influence on hormonal and ovarian function and vaginal bleeding pattern of different higher dosages of LNG administered once daily for 28 days over two consecutive treatment cycles in healthy, cyclic women.
Throughout the study, subjects kept a daily record of vaginal bleeding. During the treatment period, they also documented the time of study medication intake.

[2] = Multiple-dose pharmacokinetics, plasma LNG concentrations on treatment day 55 (±1); type: in vivo, human; conditions: for AUC(0-t) / Cmax: female, human, plasma, po
Description: Serum SHBG concentrations were determined after ovulation in the pre-treatment cycle, on treatment day 55 (±1) and at the end-of-study examination. Multiple-dose PK parameters were investigated in approximately 15 subjects per dose group, 5 of them having a BMI≥30 kg/m^2. Blood samples for LNG determination were taken on treatment day 55 (±1) pre-dose and 0.5, 1, 2, 3, 4, 6 and 24 hours after dosing.
Plasma LNG concentrations were determined by a validated liquid chromatography hyphenated with tandem mass spectrometry method (ACC, Leidersbach, Germany). PK parameters were derived by means of non-compartmental analysis. Analysis of Variance (ANOVA) was used as basis for the calculation of 90% confidence intervals; point estimates and confidence intervals for area under the curve (AUC) and maximum concentration (Cmax) values and comparison of treatments which were calculated by parametric analysis. Descriptive statistics for each treatment group and for subgroups with BMI<30 and ≥30 kg/m^2 were calculated.

[3] = 0.095 mg per day oral over 55 ± 1 consecutive days, entire treatment group
[4] = 0.115 mg per day oral over 55 ± 1 consecutive days, entire treatment group
[5] = 0.135 mg per day oral over 55 ± 1 consecutive days, entire treatment group

C#C[C@]1(O)CC[C@H]2[C@@H]3CCC4=CC(=O)CC[C@@H]4[C@H]3CC[C@@]21CC (racemic) [LNG, levonorgestrel]
Number of days with bleeding or spotting during treatment, mean (±SD) [1]: 16.0 (±11.5) days
Number of days with bleeding or spotting during treatment, median [1]: 13.0 days
AUC0-24, ss, Max [2, 3]: 23.2 ng·h/mL
AUC0-24, ss, Min [2, 3]: 7.29 ng·h/mL
Cmax, ss, Max [2, 3]: 3.12 ng/mL
Cmax, ss, Min [2, 3]: 0.903 ng/mL
AUC0-24, ss, Max [2, 4]: 26.1 ng·h/mL
AUC0-24, ss, Min [2, 4]: 5.58 ng·h/mL
Cmax, ss, Max [2, 4]: 2.83 ng/mL
Cmax, ss, Min [2, 4]: 0.73 ng/mL
AUC0-24, ss, Max [2, 5]: 30 ng·h/mL
AUC0-24, ss, Min [2, 5]: 10.2 ng·h/mL
Cmax, ss, Max [2, 5]: 3.23 ng/mL
Cmax, ss, Min [2, 5]: 1.14 ng/mL
Dose proportionality of total exposure over the dosing interval ([2]; 0.095, 0.115 and 0.135 mg per day, day 55±1): dose proportionality
AUC(0-t) ([2]; 0.095 mg per day, 0.095 mg per day oral over 55 ± 1 consecutive days, entire treatment group, read-out: AUC0-24, ss, Geometric Mean): 12.4 ng·h/mL
AUC(0-t) ([2]; 0.095 mg per day, 0.095 mg per day oral over 55 ± 1 consecutive days, entire treatment group, read-out: AUC0-24, ss, Mean): 13.1 ng·h/mL
AUC(0-t) ([2]; 0.095 mg per day, 0.095 mg per day oral over 55 ± 1 consecutive days, entire treatment group, read-out: AUC0-24, ss, Median): 11.8 ng·h/mL
Cmax ([2]; 0.095 mg per day, 0.095 mg per day oral over 55 ± 1 consecutive days, entire treatment group, read-out: Cmax, ss, Geometric Mean): 1.55 ng/mL
Cmax ([2]; 0.095 mg per day, 0.095 mg per day oral over 55 ± 1 consecutive days, entire treatment group, read-out: Cmax, ss, Mean): 1.65 ng/mL
Cmax ([2]; 0.095 mg per day, 0.095 mg per day oral over 55 ± 1 consecutive days, entire treatment group, read-out: Cmax, ss, Median): 1.63 ng/mL
AUC(0-t) ([2]; 0.095 mg per day, 0.095 mg per day oral over 55 ± 1 consecutive days, subgroup BMI < 30 kg/m2, read-out: AUC0-24, ss, Geometric mean): 14 ng·h/mL
Cmax ([2]; 0.095 mg per day, 0.095 mg per day oral over 55 ± 1 consecutive days, subgroup BMI < 30 kg/m2, read-out: Cmax, ss, Geometric mean): 1.83 ng/mL
AUC(0-t) ([2]; 0.095 mg per day, 0.095 mg per day oral over 55 ± 1 consecutive days, subgroup BMI ≥ 30 kg/m^2, read-out: AUC0-24, ss, Geometric mean): 9.2 ng·h/mL
Cmax ([2]; 0.095 mg per day, 0.095 mg per day oral over 55 ± 1 consecutive days, subgroup BMI ≥ 30 kg/m^2, read-out: Cmax, ss, Geometric mean): 1.05 ng/mL
AUC(0-t) ([2]; 0.115 mg per day, 0.115 mg per day oral over 55 ± 1 consecutive days, entire treatment group, read-out: AUC0-24, ss, Geometric Mean): 13.8 ng·h/mL
AUC(0-t) ([2]; 0.115 mg per day, 0.115 mg per day oral over 55 ± 1 consecutive days, entire treatment group, read-out: AUC0-24, ss, Mean): 14.8 ng·h/mL
AUC(0-t) ([2]; 0.115 mg per day, 0.115 mg per day oral over 55 ± 1 consecutive days, entire treatment group, read-out: AUC0-24, ss, Median): 12.9 ng·h/mL
Cmax ([2]; 0.115 mg per day, 0.115 mg per day oral over 55 ± 1 consecutive days, entire treatment group, read-out: Cmax, ss, Geometric Mean): 1.67 ng/mL
Cmax ([2]; 0.115 mg per day, 0.115 mg per day oral over 55 ± 1 consecutive days, entire treatment group, read-out: Cmax, ss, Mean): 1.79 ng/mL
Cmax ([2]; 0.115 mg per day, 0.115 mg per day oral over 55 ± 1 consecutive days, entire treatment group, read-out: Cmax, ss, Median): 1.81 ng/mL
AUC(0-t) ([2]; 0.115 mg per day, 0.115 mg per day oral over 55 ± 1 consecutive days, subgroup BMI < 30 kg/m2, read-out: AUC0-24, ss, Geometric mean): 16.3 ng·h/mL
Cmax ([2]; 0.115 mg per day, 0.115 mg per day oral over 55 ± 1 consecutive days, subgroup BMI < 30 kg/m2, read-out: Cmax, ss, Geometric mean): 2.03 ng/mL
AUC(0-t) ([2]; 0.115 mg per day, 0.115 mg per day oral over 55 ± 1 consecutive days, subgroup BMI ≥ 30 kg/m^2, read-out: AUC0-24, ss, Geometric mean): 9.32 ng·h/mL
Cmax ([2]; 0.115 mg per day, 0.115 mg per day oral over 55 ± 1 consecutive days, subgroup BMI ≥ 30 kg/m^2, read-out: Cmax, ss, Geometric mean): 1.05 ng/mL
AUC(0-t) ([2]; 0.135 mg per day, 0.135 mg per day oral over 55 ± 1 consecutive days, entire treatment group, read-out: AUC0-24, ss, Geometric Mean): 16.8 ng·h/mL
AUC(0-t) ([2]; 0.135 mg per day, 0.135 mg per day oral over 55 ± 1 consecutive days, entire treatment group, read-out: AUC0-24, ss, Mean): 17.5 ng·h/mL
AUC(0-t) ([2]; 0.135 mg per day, 0.135 mg per day oral over 55 ± 1 consecutive days, entire treatment group, read-out: AUC0-24, ss, Median): 16.9 ng·h/mL
Cmax ([2]; 0.135 mg per day, 0.135 mg per day oral over 55 ± 1 consecutive days, entire treatment group, read-out: Cmax, ss, Geometric Mean): 1.92 ng/mL
Cmax ([2]; 0.135 mg per day, 0.135 mg per day oral over 55 ± 1 consecutive days, entire treatment group, read-out: Cmax, ss, Mean): 2.01 ng/mL
Cmax ([2]; 0.135 mg per day, 0.135 mg per day oral over 55 ± 1 consecutive days, entire treatment group, read-out: Cmax, ss, Median): 1.93 ng/mL
AUC(0-t) ([2]; 0.135 mg per day, 0.135 mg per day oral over 55 ± 1 consecutive days, subgroup BMI < 30 kg/m2, read-out: AUC0-24, ss, Geometric mean): 17.6 ng·h/mL
Cmax ([2]; 0.135 mg per day, 0.135 mg per day oral over 55 ± 1 consecutive days, subgroup BMI < 30 kg/m2, read-out: Cmax, ss, Geometric mean): 2.14 ng/mL
AUC(0-t) ([2]; 0.135 mg per day, 0.135 mg per day oral over 55 ± 1 consecutive days, subgroup BMI ≥ 30 kg/m^2, read-out: AUC0-24, ss, Geometric mean): 15.3 ng·h/mL
Cmax ([2]; 0.135 mg per day, 0.135 mg per day oral over 55 ± 1 consecutive days, subgroup BMI ≥ 30 kg/m^2, read-out: Cmax, ss, Geometric mean): 1.52 ng/mL
Time at which maximum plasma LNG values were reached after dosing ([2]; study drug administration on day 55±1, all dosages): 1 h
